Reference: patent US20110152341A1, “CLEAVAGE OF B-AMYLOID PRECURSOR PROTEIN” (PROBIODRUG AG, priority 2009, published 2011)

Test system: human meprin-β (hMPβ) and human APP in HEK293 cells
Test: Aβ secreted by HEK293 cells after transient overexpression of human meprin-β and human APP, ELISA
Assay type: cell-based
Settings: 20 μM actinonin (1% DMSO), 24 h, HEK293, ELISA (IBL) with antibody 6E10
Procedure: The sequence of human APP was cloned into the vector pcDNA3.1 (Invitrogen) and various mutations were inserted. The resulting clones were named pcDNA-hAPP (for wildtyp APP), pcDNA-hAPPsw (for mutation K595N, M596L) and pcDNA-hAPP/E3Q (for mutation E599Q). For transient overexpression of human meprin and human APP the cells were cultured in 6-well dishes until 90% confluence, transfected with 2 μg of vector with meprin and 2 μg of one of the described APP-vectors per well using Lipofectamin2000 (Invitrogen) according to manufacturer's manual. Control samples were transfected with pcDNA3.1. After 24 h the solution was replaced by medium free of serum and phenolred. Medium was collected 24 h later and supplemented with a protease inhibitor cocktail (complete, Mini, Roche), centrifuged at 500×g and 10 000×g, subsequently to remove cells and debris. The supernatant was stored at −80 until analysis by ELISA (IBL) and urea western-blot for identification of liberated Aβ species.
24 h after co-transfection of HEK293 cells with human APP and meprin (as described for example 4) the medium was replaced by medium free of serum and phenolred supplemented with 20 μM Actinonin (1% DMSO). 24 hours later medium was collected, supplemented with inhibitor cocktail (complete, Mini, Roche), centrifuged at 500×g and 10 000×g, subsequently to remove cells and debris. […]

Structure (SMILES): CCCCC[C@H](CC(=O)NO)C(=O)N[C@H](C(=O)N1CCC[C@H]1CO)C(C)C [Actinonin]
- Effect on the increase of Aβ secretion after overexpression of hAPP and hMPβ: reduced to almost the basal level
